Tested on: 695427-040-R-J1-PDC complex spheroid viability
Assay: Anticancer human tumor 695427-040-R-J1-PDC patient-derived colon adenocarcinoma cell line growth inhibition [RAS]
Conditions: for IC50: curve of first compound; for viability, T/C: stronger effect = lower value
How it was run: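 Tumour cells grown as complex spheroids with HUVEC endothelial cells and mesenchymal stem cells, treated with RAS pathway inhibitor combinations. Each agent spans half-log steps from near clinical Cmax, or 10 microM where Cmax is unknown.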

[1] = second compound 0.0316 µM, first compound 0.00316 µM
[2] = second compound 0.0316 µM, first compound 0.01 µM
[3] = second compound 0.0316 µM, first compound 0.0316 µM
[4] = second compound 0.0316 µM, first compound 0.1 µM
[5] = second compound 0.1 µM, first compound 0.00316 µM
[6] = second compound 0.1 µM, first compound 0.01 µM
[7] = second compound 0.1 µM, first compound 0.0316 µM
[8] = second compound 0.1 µM, first compound 0.1 µM
[9] = second compound 0.316 µM, first compound 0.00316 µM
[10] = second compound 0.316 µM, first compound 0.01 µM
[11] = second compound 0.316 µM, first compound 0.0316 µM
[12] = second compound 0.316 µM, first compound 0.1 µM
[13] = second compound 1 µM, first compound 0.00316 µM
[14] = second compound 1 µM, first compound 0.01 µM
[15] = second compound 1 µM, first compound 0.0316 µM
[16] = second compound 1 µM, first compound 0.1 µM
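Also: viability read after seven days of drug exposure.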
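For viability, T/C in this document: 100% = DMSO vehicle control viability.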

Cc1nc(N2CCC3(CC2)COC(C)C3N)c(CO)nc1Sc1ccnc(N)c1Cl (stereo unspecified) + CCn1c(-c2cccnc2C(C)OC)c2c3cc(ccc31)N1CCOC(CC(NC(=O)C(C(C)C)N(C)C(=O)C3(F)CCN(C(=O)C#CC(C)(C)N(C)C)CC3)C(=O)N3CCCC(N3)C(=O)OCC(C)(C)C2)C1 was tested, and the IC50 (second compound 0.000949 µM) was over 10000 nM, the IC50 (second compound 0.003 µM) was over 10000 nM and the IC50 (second compound 0.00949 µM) was over 10000 nM. For the same compound, the IC50 (second compound 0.03 µM) was over 10000 nM, the IC50 (second compound 0.0949 µM) was over 10000 nM and the IC50 (second compound 0.3 µM) was 2820 nM. The viability, T/C (second compound 0.000949 µM, first compound 0.0316 µM) was 84.9%, the viability, T/C (second compound 0.000949 µM, first compound 0.1 µM) was 93.2% and the viability, T/C (second compound 0.000949 µM, first compound 0.316 µM) was 75.4%. The viability, T/C (second compound 0.000949 µM, first compound 1 µM) was 64.3%, the viability, T/C (second compound 0.000949 µM, first compound 3.16 µM) was 60.4% and the viability, T/C (second compound 0.000949 µM, first compound 10 µM) was 61.3%. For the same compound, the viability, T/C (second compound 0.003 µM, first compound 0.0316 µM) was 94.2%, the viability, T/C (second compound 0.003 µM, first compound 0.1 µM) was 70.6% and the viability, T/C (second compound 0.003 µM, first compound 0.316 µM) was 71.4%. For the same compound, the viability, T/C (second compound 0.003 µM, first compound 1 µM) was 63.2%, the viability, T/C (second compound 0.003 µM, first compound 3.16 µM) was 67.1% and the viability, T/C (second compound 0.003 µM, first compound 10 µM) was 47.3%. The viability, T/C (second compound 0.00949 µM, first compound 0.0316 µM) was 104%, the viability, T/C (second compound 0.00949 µM, first compound 0.1 µM) was 82% and the viability, T/C (second compound 0.00949 µM, first compound 0.316 µM) was 83.9%. The viability, T/C (second compound 0.00949 µM, first compound 1 µM) was 57.8%, the viability, T/C (second compound 0.00949 µM, first compound 3.16 µM) was 67.1% and the viability, T/C (second compound 0.00949 µM, first compound 10 µM) was 49.3%. For the same compound, the viability, T/C (second compound 0.03 µM, first compound 0.0316 µM) was 75%, the viability, T/C (second compound 0.03 µM, first compound 0.1 µM) was 85.8% and the viability, T/C (second compound 0.03 µM, first compound 0.316 µM) was 63%. For the same compound, the viability, T/C (second compound 0.03 µM, first compound 1 µM) was 63.8%, the viability, T/C (second compound 0.03 µM, first compound 3.16 µM) was 65.5% and the viability, T/C (second compound 0.03 µM, first compound 10 µM) was 53.4%. The viability, T/C (second compound 0.0949 µM, first compound 0.0316 µM) was 78.2%, the viability, T/C (second compound 0.0949 µM, first compound 0.1 µM) was 83.7% and the viability, T/C (second compound 0.0949 µM, first compound 0.316 µM) was 74%. For the same compound, the viability, T/C (second compound 0.0949 µM, first compound 1 µM) was 68.1%, the viability, T/C (second compound 0.0949 µM, first compound 3.16 µM) was 63% and the viability, T/C (second compound 0.0949 µM, first compound 10 µM) was 52.7%. It also gave a viability, T/C (second compound 0.3 µM, first compound 0.0316 µM) of 85.2%, a viability, T/C (second compound 0.3 µM, first compound 0.1 µM) of 70.9% and a viability, T/C (second compound 0.3 µM, first compound 0.316 µM) of 70.5%. The viability, T/C (second compound 0.3 µM, first compound 1 µM) was 51.4%, the viability, T/C (second compound 0.3 µM, first compound 3.16 µM) was 51.4% and the viability, T/C (second compound 0.3 µM, first compound 10 µM) was 43.5%.

O=C(c1ccc(F)c(F)c1Nc1ccc(I)cc1F)N1CC(O)([C@@H]2CCCCN2)C1 + C=CC(=O)N1CCN(c2nc(OCC3CCCN3C)nc3c(F)c(-c4nc(N)cc(C)c4C(F)(F)F)c(Cl)cc23)C(C)C1 gave an IC50 (second compound 0.00316 µM) of 37 nM, an IC50 (second compound 0.01 µM) of 39.8 nM and an IC50 (second compound 0.0316 µM) of 39.6 nM. The IC50 (second compound 0.1 µM) was 46.3 nM, the IC50 (second compound 0.316 µM) was 46.6 nM and the IC50 (second compound 1 µM) was 56.4 nM. The viability, T/C (second compound 0.00316 µM, first compound 0.00316 µM) was 81.5%, the viability, T/C (second compound 0.00316 µM, first compound 0.01 µM) was 75.2% and the viability, T/C (second compound 0.00316 µM, first compound 0.0316 µM) was 50.1%. It also gave a viability, T/C (second compound 0.00316 µM, first compound 0.1 µM) of 32.4%, a viability, T/C (second compound 0.00316 µM, first compound 0.316 µM) of 13.7% and a viability, T/C (second compound 0.00316 µM, first compound 1 µM) of 6.97%. The viability, T/C (second compound 0.01 µM, first compound 0.00316 µM) was 85.8%, the viability, T/C (second compound 0.01 µM, first compound 0.01 µM) was 74.7% and the viability, T/C (second compound 0.01 µM, first compound 0.0316 µM) was 54.9%. For the same compound, the viability, T/C (second compound 0.01 µM, first compound 0.1 µM) was 30.2%, the viability, T/C (second compound 0.01 µM, first compound 0.316 µM) was 15.9% and the viability, T/C (second compound 0.01 µM, first compound 1 µM) was 2.53%. The viability, T/C [1] was 86.5%, the viability, T/C [2] was 72% and the viability, T/C [3] was 58%. The viability, T/C [4] was 27.8%, the viability, T/C (second compound 0.0316 µM, first compound 0.316 µM) was 15.4% and the viability, T/C (second compound 0.0316 µM, first compound 1 µM) was 4.49%. For the same compound, the viability, T/C [5] was 87.7%, the viability, T/C [6] was 73.1% and the viability, T/C [7] was 60.8%. It also gave a viability, T/C [8] of 32.6%, a viability, T/C (second compound 0.1 µM, first compound 0.316 µM) of 16.4% and a viability, T/C (second compound 0.1 µM, first compound 1 µM) of 5.49%. The viability, T/C [9] was 82.8%, the viability, T/C [10] was 86.4% and the viability, T/C [11] was 55.4%. The viability, T/C [12] was 31.6%, the viability, T/C (second compound 0.316 µM, first compound 0.316 µM) was 15.2% and the viability, T/C (second compound 0.316 µM, first compound 1 µM) was 2.92%. For the same compound, the viability, T/C [13] was 78.8%, the viability, T/C [14] was 81.7% and the viability, T/C [15] was 60.2%. It also gave a viability, T/C [16] of 37.8%, a viability, T/C (second compound 1 µM, first compound 0.316 µM) of 15.1% and a viability, T/C (second compound 1 µM, first compound 1 µM) of 3.14%.

CC(C)n1nc(-c2ccc3oc(N)nc3c2)c2c(N)ncnc21 + C#Cc1c(F)ccc2cc(O)cc(-c3ncc4c(N5CC6CCC(C5)N6)nc(OCC56CCCN5CC(F)C6)nc4c3F)c12 showed an IC50 (second compound 0.0316 µM) of over 100 nM, an IC50 (second compound 0.1 µM) of over 100 nM and an IC50 (second compound 0.316 µM) of over 100 nM. The IC50 (second compound 1 µM) was 22.5 nM, the IC50 (second compound 3.16 µM) was 2.77 nM and the IC50 (second compound 10 µM) was under 0.316 nM. The viability, T/C (second compound 0.0316 µM, first compound 0.000316 µM) was 105%, the viability, T/C (second compound 0.0316 µM, first compound 0.001 µM) was 95.1% and the viability, T/C [1] was 88.5%. It also gave a viability, T/C [2] of 75.7%, a viability, T/C [3] of 70.3% and a viability, T/C [4] of 62.6%. It also gave a viability, T/C (second compound 0.1 µM, first compound 0.000316 µM) of 93.9%, a viability, T/C (second compound 0.1 µM, first compound 0.001 µM) of 89.4% and a viability, T/C [5] of 90%. It also gave a viability, T/C [6] of 74.9%, a viability, T/C [7] of 74.7% and a viability, T/C [8] of 55.9%. The viability, T/C (second compound 0.316 µM, first compound 0.000316 µM) was 91.9%, the viability, T/C (second compound 0.316 µM, first compound 0.001 µM) was 80.9% and the viability, T/C [9] was 78.6%. It also gave a viability, T/C [10] of 68.8%, a viability, T/C [11] of 61.5% and a viability, T/C [12] of 50.5%. For the same compound, the viability, T/C (second compound 1 µM, first compound 0.000316 µM) was 69.5%, the viability, T/C (second compound 1 µM, first compound 0.001 µM) was 64.3% and the viability, T/C [13] was 63%. The viability, T/C [14] was 52.4%, the viability, T/C [15] was 47.8% and the viability, T/C [16] was 42.1%. The viability, T/C (second compound 3.16 µM, first compound 0.000316 µM) was 51.1%, the viability, T/C (second compound 3.16 µM, first compound 0.001 µM) was 58.7% and the viability, T/C (second compound 3.16 µM, first compound 0.00316 µM) was 47.4%. For the same compound, the viability, T/C (second compound 3.16 µM, first compound 0.01 µM) was 42.1%, the viability, T/C (second compound 3.16 µM, first compound 0.0316 µM) was 35.4% and the viability, T/C (second compound 3.16 µM, first compound 0.1 µM) was 26.7%. The viability, T/C (second compound 10 µM, first compound 0.000316 µM) was 41.5%, the viability, T/C (second compound 10 µM, first compound 0.001 µM) was 33.5% and the viability, T/C (second compound 10 µM, first compound 0.00316 µM) was 35%. It also gave a viability, T/C (second compound 10 µM, first compound 0.01 µM) of 27%, a viability, T/C (second compound 10 µM, first compound 0.0316 µM) of 25% and a viability, T/C (second compound 10 µM, first compound 0.1 µM) of 14.5%.

From PubChem BioAssay AID2060888 (Molecular Pharmacology Branch, DTP, NCI, 2025)
